Results as given in ChEMBL document CHEMBL5576070, “The recent discovery of a promising pharmacological scaffold derived from carvacrol: A review” (Bioorg Med Chem Lett, 2024).
pIC50: −log10 of the molar value. Converted amounts (≈) assume the structure as drawn.

Key:
Acetylcholinesterase = Acetylcholinesterase (Homo sapiens, UniProt P22303); experiment: Inhibition of AChE (unknown origin)
Cholinesterase = Cholinesterase (Homo sapiens, UniProt P06276); experiment: Inhibition of human BChE using butyrylthiocholine iodide as substrate incubated for 15 mins by spectrophotometric Ellman's method
[1] = system: Staphylococcus epidermidis; experiment: Antimicrobial activity against Staphylococcus epidermidis ATCC 12228 assessed as reduction in bacterial growth incubated for 24 hrs by Mueller-Hinton agar based analysis; assay type: functional
Staphylococcus aureus = experiment: Antimicrobial activity against Staphylococcus aureus […] assessed as reduction in bacterial growth incubated for 24 hrs by Mueller-Hinton agar based analysis; assay type: functional
Escherichia coli [2] = experiment: Antibacterial activity against Escherichia coli assessed as reduction in bacterial growth incubated for 24 hrs by Mueller-Hinton agar based analysis; assay type: functional
Pseudomonas aeruginosa = experiment: Antibacterial activity against Pseudomonas aeruginosa ATCC 15442 assessed as reduction in bacterial growth incubated for 24 hrs by Mueller-Hinton agar based analysis; assay type: functional
Mushroom tyrosinase = Mushroom tyrosinase (Agaricus bisporus, UniProt O42713+Q00024+C7FF04+C7FF05); experiment: Inhibition of mushroom tyrosinase using L-DOPA as substrate by spectrophotometric analysis; assay type: protein assay
Escherichia coli [3] = experiment: microbe, parasite or virus in culture; details: ATCC 25922, 24 h

Sequence of Cholinesterase (P06276 whole entry): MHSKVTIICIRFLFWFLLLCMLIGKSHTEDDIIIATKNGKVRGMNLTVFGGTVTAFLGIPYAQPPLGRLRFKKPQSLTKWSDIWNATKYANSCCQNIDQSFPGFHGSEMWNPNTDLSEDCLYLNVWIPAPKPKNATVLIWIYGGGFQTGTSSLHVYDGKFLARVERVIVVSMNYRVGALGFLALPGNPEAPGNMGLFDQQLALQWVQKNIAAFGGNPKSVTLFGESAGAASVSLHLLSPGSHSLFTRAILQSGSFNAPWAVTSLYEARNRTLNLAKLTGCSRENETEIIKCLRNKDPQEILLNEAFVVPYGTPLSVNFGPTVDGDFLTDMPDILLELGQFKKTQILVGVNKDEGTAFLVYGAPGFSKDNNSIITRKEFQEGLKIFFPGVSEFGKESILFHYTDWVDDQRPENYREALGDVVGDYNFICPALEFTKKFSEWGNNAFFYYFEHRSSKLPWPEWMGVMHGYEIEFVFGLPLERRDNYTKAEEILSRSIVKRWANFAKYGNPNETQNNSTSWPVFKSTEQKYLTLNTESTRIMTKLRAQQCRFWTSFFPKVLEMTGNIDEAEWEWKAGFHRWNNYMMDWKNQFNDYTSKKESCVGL
Sequence of Acetylcholinesterase (P22303 whole entry): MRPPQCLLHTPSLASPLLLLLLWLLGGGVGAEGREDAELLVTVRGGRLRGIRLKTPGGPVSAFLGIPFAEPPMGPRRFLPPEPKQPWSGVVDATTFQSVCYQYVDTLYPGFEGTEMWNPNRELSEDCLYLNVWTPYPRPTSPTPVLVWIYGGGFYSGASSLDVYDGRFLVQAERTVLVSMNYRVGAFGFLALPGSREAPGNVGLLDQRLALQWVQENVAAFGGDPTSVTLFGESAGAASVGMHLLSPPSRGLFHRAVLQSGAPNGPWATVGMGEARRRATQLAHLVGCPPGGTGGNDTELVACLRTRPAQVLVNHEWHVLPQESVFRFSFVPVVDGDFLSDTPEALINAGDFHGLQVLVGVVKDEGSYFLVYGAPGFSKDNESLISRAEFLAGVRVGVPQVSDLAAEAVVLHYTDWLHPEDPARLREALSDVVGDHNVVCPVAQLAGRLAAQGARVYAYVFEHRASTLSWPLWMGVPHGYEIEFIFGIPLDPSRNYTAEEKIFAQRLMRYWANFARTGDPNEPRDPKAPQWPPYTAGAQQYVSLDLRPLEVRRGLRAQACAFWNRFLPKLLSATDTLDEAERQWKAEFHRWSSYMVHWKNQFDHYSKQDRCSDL

Cc1ccc(C(C)C)cc1OCC(=O)N(C(C)C)C(C)C
pIC50 (Acetylcholinesterase): 5.71 | pIC50 (Cholinesterase): 7.30

Cc1ccc(C(C)C)cc1OCC(=O)N1Cc2ccccc2C1
pIC50 (Acetylcholinesterase): 5.71 | pIC50 (Cholinesterase): 7.30

CC(=O)N[C@@H](CS)C(=O)Oc1cc(C(C)C)ccc1C
MIC [1]: 5 µg/mL (≈ 16.9 µM) | MIC (Staphylococcus aureus): 10 µg/mL (≈ 33.9 µM) | MIC (Escherichia coli [2]): 10 µg/mL (≈ 33.9 µM) | MIC (Pseudomonas aeruginosa): 10 µg/mL (≈ 33.9 µM)

C=CCSC[C@H](NC(C)=O)C(=O)Oc1cc(C(C)C)ccc1C
MIC [1]: 2.5 µg/mL (≈ 7.45 µM) | MIC (Staphylococcus aureus): 2.5 µg/mL (≈ 7.45 µM) | MIC (Escherichia coli [2]): 2.5 µg/mL (≈ 7.45 µM) | MIC (Pseudomonas aeruginosa): 5 µg/mL (≈ 14.9 µM)

Cc1ccc(C(C)C)cc1OC(=O)COC(=O)/C=C/c1ccccc1
IC50 (Mushroom tyrosinase): 7700 nM

Cc1ccc(C(C)C)cc1OC(=O)C(C)C
MIC (Escherichia coli [3]): 11.7 µg/mL (≈ 53.1 µM)

Cc1ccc(C(C)C)cc1OC(=O)COC(=O)c1ccc(O)cc1
IC50 (Mushroom tyrosinase): 14900 nM

Cc1ccc(C(C)C)cc1OCC(=O)NCCC1=CCCCC1
pIC50 (Acetylcholinesterase): 5.71 | pIC50 (Cholinesterase): 7.30

Cc1ccc(C(C)C)cc1OC(=O)COC(=O)c1ccc(O)c(O)c1
IC50 (Mushroom tyrosinase): 15900 nM

C/C=C/C(=O)Oc1cc(C(C)C)ccc1C
MIC (Escherichia coli [3]): 11.7 µg/mL (≈ 53.6 µM)

Cc1ccc(C(C)C)cc1OC(=O)c1ccccc1
MIC (Escherichia coli [3]): 11.7 µg/mL (≈ 46 µM)

CNC(=O)COc1cc(C(C)C)ccc1C
pIC50 (Acetylcholinesterase): 5.71 | pIC50 (Cholinesterase): 7.30

Cc1ccc(C(C)C)cc1OC(=O)COC(=O)/C=C/c1ccc(Cl)cc1
IC50 (Mushroom tyrosinase): 6700 nM

Cc1ccc(C(C)C)cc1OCC(=O)NCc1ccc2c(c1)OCO2
pIC50 (Acetylcholinesterase): 5.71 | pIC50 (Cholinesterase): 7.30

Cc1ccc(C(C)C)cc1OC(=O)COC(=O)/C=C/c1ccc(O)cc1
IC50 (Mushroom tyrosinase): 6500 nM

CCCNC(=O)COc1cc(C(C)C)ccc1C
pIC50 (Acetylcholinesterase): 5.71 | pIC50 (Cholinesterase): 7.30

Cc1ccc(C(C)C)cc1OC(=O)COC(=O)c1cccc(O)c1
IC50 (Mushroom tyrosinase): 14900 nM

Cc1ccc(C(C)C)cc1OCC(=O)NCCNc1cccc2cccnc12
pIC50 (Acetylcholinesterase): 5.71 | pIC50 (Cholinesterase): 7.30

Cc1ccc(C(C)C)cc1OC(=O)Cc1ccccc1
MIC (Escherichia coli [3]): 11.7 µg/mL (≈ 43.6 µM)

Cc1ccc(C(C)C)cc1OCC(=O)NCCN1CCN(C)CC1
pIC50 (Acetylcholinesterase): 5.71 | pIC50 (Cholinesterase): 7.30

CSC[C@H](NC(C)=O)C(=O)Oc1cc(C(C)C)ccc1C
MIC [1]: 2.5 µg/mL (≈ 8.08 µM) | MIC (Staphylococcus aureus): 10 µg/mL (≈ 32.3 µM) | MIC (Escherichia coli [2]): 10 µg/mL (≈ 32.3 µM) | MIC (Pseudomonas aeruginosa): 10 µg/mL (≈ 32.3 µM)

Cc1ccc(C(C)C)cc1OCC(=O)NC1CCCCC1
pIC50 (Acetylcholinesterase): 5.71 | pIC50 (Cholinesterase): 7.30

Cc1ccc(C(C)C)cc1OC(=O)CC(C)C
MIC (Escherichia coli [3]): 11.7 µg/mL (≈ 49.9 µM)

CC(=O)Oc1cc(C(C)C)ccc1C
MIC (Escherichia coli [3]): 11.7 µg/mL (≈ 60.9 µM)

Cc1ccc(C(C)C)cc1OCC(=O)N1CCCCC1
pIC50 (Acetylcholinesterase): 5.71 | pIC50 (Cholinesterase): 7.30

Cc1ccc(C(C)C)cc1OC(=O)CCCC[C@@H]1CCSS1
MIC [1]: 10 µg/mL (≈ 29.5 µM) | MIC (Staphylococcus aureus): 10 µg/mL (≈ 29.5 µM) | MIC (Escherichia coli [2]): 5 µg/mL (≈ 14.8 µM) | MIC (Pseudomonas aeruginosa): 5 µg/mL (≈ 14.8 µM)

C#CCSC[C@H](NC(C)=O)C(=O)Oc1cc(C(C)C)ccc1C
MIC [1]: 5 µg/mL (≈ 15 µM) | MIC (Staphylococcus aureus): 10 µg/mL (≈ 30 µM) | MIC (Escherichia coli [2]): 10 µg/mL (≈ 30 µM) | MIC (Pseudomonas aeruginosa): 10 µg/mL (≈ 30 µM)

Cc1ccc(C(C)C)cc1OC(=O)COC(=O)c1ccc(O)cc1O
IC50 (Mushroom tyrosinase): 6700 nM

Cc1ccc(C(C)C)cc1OCC(=O)NCCN1CCCC1
pIC50 (Acetylcholinesterase): 5.71 | pIC50 (Cholinesterase): 7.30

CCN(CC)C(=O)COc1cc(C(C)C)ccc1C
pIC50 (Acetylcholinesterase): 5.71 | pIC50 (Cholinesterase): 7.30

CCSC[C@H](NC(C)=O)C(=O)Oc1cc(C(C)C)ccc1C
MIC [1]: 10 µg/mL (≈ 30.9 µM) | MIC (Staphylococcus aureus): 10 µg/mL (≈ 30.9 µM) | MIC (Escherichia coli [2]): 10 µg/mL (≈ 30.9 µM) | MIC (Pseudomonas aeruginosa): 10 µg/mL (≈ 30.9 µM)

Cc1ccc(C(C)C)cc1OCC(=O)NCCN1CCOCC1
pIC50 (Acetylcholinesterase): 5.71 | pIC50 (Cholinesterase): 7.30

Cc1ccc(C(C)C)cc1OC(=O)[C@@H]1CSC(=O)N1
MIC [1]: 10 µg/mL (≈ 35.8 µM) | MIC (Staphylococcus aureus): 10 µg/mL (≈ 35.8 µM) | MIC (Escherichia coli [2]): 10 µg/mL (≈ 35.8 µM) | MIC (Pseudomonas aeruginosa): 10 µg/mL (≈ 35.8 µM)

Cc1ccc(C(C)C)cc1OC(=O)[C@@H]1CSCN1C(=O)C(F)(F)F
MIC [1]: 2.5 µg/mL (≈ 6.92 µM) | MIC (Staphylococcus aureus): 5 µg/mL (≈ 13.8 µM) | MIC (Escherichia coli [2]): 5 µg/mL (≈ 13.8 µM) | MIC (Pseudomonas aeruginosa): 10 µg/mL (≈ 27.7 µM)

COc1ccc(CCNC(=O)COc2cc(C(C)C)ccc2C)cc1OC
pIC50 (Acetylcholinesterase): 5.71 | pIC50 (Cholinesterase): 7.30

C[Se]CC[C@H](NC(C)=O)C(=O)Oc1cc(C(C)C)ccc1C
MIC [1]: 5 µg/mL (≈ 13.5 µM) | MIC (Staphylococcus aureus): 10 µg/mL (≈ 27 µM) | MIC (Escherichia coli [2]): 5 µg/mL (≈ 13.5 µM) | MIC (Pseudomonas aeruginosa): 5 µg/mL (≈ 13.5 µM)

CCC(=O)Oc1cc(C(C)C)ccc1C
MIC (Escherichia coli [3]): 11.7 µg/mL (≈ 56.7 µM)

CSCC[C@H](NC(C)=O)C(=O)Oc1cc(C(C)C)ccc1C
MIC [1]: 10 µg/mL (≈ 30.9 µM) | MIC (Staphylococcus aureus): 10 µg/mL (≈ 30.9 µM) | MIC (Escherichia coli [2]): 10 µg/mL (≈ 30.9 µM) | MIC (Pseudomonas aeruginosa): 5 µg/mL (≈ 15.5 µM)
